The values below are quoted from earlier work in patent US9526803B2, “Diagnostic chewing gum for pathogens” (Julius-Maximilians-Universitaet Wuerzburg, priority 2012, dated 2016).

In one data set the test system is human tongue. The following applies: average human.
The subject of a further data set is gustatory system. To be noted: reference for calibration of volunteers; bitter value 10,000 = 1 g in 10,000 mL water barely recognized as bitter.

Where a name gives a salt, the structure may show the parent alone.

Turning to `C=C[C@H]1C[N@@]2CC[C@H]1C[C@H]2[C@H](O)c1ccnc2ccc(OC)cc12` [Quinine sulfate], the “concentration sensed down to (taste recognition threshold)” value with human tongue is given as 0.0004 mM.

`O=C1NS(=O)(=O)c2ccccc21` [saccharin]: the “concentration sensed down to (taste recognition threshold)” value in the data set with human tongue is on record as 0.02 mM.

As to `C=C[C@H]1C[N@@]2CC[C@H]1C[C@H]2[C@H](O)c1ccnc2ccc(OC)cc12` [quinine-HCl], the bitter value in the data set with gustatory system is 200,000.
